In PMC7767053, “Functional Analysis of Odorant-Binding Proteins 12 and 17 from Wheat Blossom Midge Sitodiplosis mosellana Géhin (Diptera: Cecidomyiidae)” (Insects, 2020):
“Also recorded” adds a separate entry of the source. Read-outs that look alike come from different tables or passages of the source.

Experiments:
[1] = target: SmosOBP12 (Sitodiplosis mosellana, UniProt A0A346RTY7); assay: Fluorescence competitive binding assay with 1-NPN probe, recombinant SmosOBP12; details: for Ki: calculated from IC50, Ki = [IC50]/(1 + [1-NPN]/K1-NPN)
Method: (§1) To determine binding affinities of SmosOBP12 and SmosOBP17 to host plant volatile compounds, fluorescence competitive binding assays were conducted using 1-N-phenyl-naphthylamine (1-NPN) as the fluorescent probe. Twenty-eight volatile compounds from winter wheat (Table 2) were selected based on our previous research. Both the probe and candidate ligands were dissolved in chromatographic-grade methanol to obtain 1 mM stock solutions, whereas recombinant SmosOBPs were diluted in 20 mM Tris-HCl (pH 7.4) to 2 μM. Fluorescence intensity was detected on an F-4600 fluorescence spectrophotometer (Hitachi, Tokyo, Japan) with a 1 cm light path quartz cuvette. Slits of both excitation and emissions were 10 nm in width. The probe was excited at 337 nm, and emission spectra were recorded between 370 and 550 nm.
(§2) Affinities of SmosOBPs to tested volatile ligands were measured by competition assays: to the 1 mL solution containing 2 μM recombinant protein and 2 μM 1-NPN, 1 mM solution of each putative volatile ligand (in a 2 µL aliquot) was added to final concentrations of 2–14 μM for SmosOBP12 and 2–40 μM for SmosOBP17, respectively. Maximal fluorescence intensities were plotted against ligand concentrations. Data were obtained from three independent measurements.
(§3) The Kd value was calculated using GraphPad Prism 5 (GraphPad Software Inc., La Jolla, CA, USA) via nonlinear regression for a unique site of binding. The inhibition constant (Ki) of each ligand competitor was calculated from the corresponding IC50 value (the concentration of competitor displacing 50% of initial fluorescence intensity) according to the equation: Ki = [IC50]/(1 + [1-NPN]/K1-NPN), where [1-NPN] is the free concentration of 1-NPN, and K1-NPN is the dissociation constant of the SmosOBPs/1-NPN complex.

[2] = target: SmosOBP17 (Sitodiplosis mosellana, UniProt A0A346RTY9); assay: Fluorescence competitive binding assay with 1-NPN probe, recombinant SmosOBP17; details: for Ki: calculated from IC50, Ki = [IC50]/(1 + [1-NPN]/K1-NPN); for binding to SmosOBP17 (in words): fluorescence competitive binding
Method: as §1, §2, §3

[3] = test system: S. mosellana females; assay: Y-tube olfactometer bioassay; format: in vivo, Sitodiplosis mosellana; details: 10 μL of 20 μg/μL in paraffin oil vs paraffin oil control; 60 females
Method: Behavioral responses of S. mosellana females to the 28 volatile ligands were measured in a glass Y-tube olfactometer. The base and two arms of the Y-tube are 15 cm in length and 25 mm in internal diameter. The angle between arms is 60°. A 10 μL aliquot of the test chemical in paraffin oil at a concentration of 20 μg/μL [45] was applied to a filter paper strip (20 × 20 mm), which was allowed to evaporate for 20 s and then placed into one of the two odor bottles. The other odor bottle contained a filter paper strip treated with 10 μL of paraffin oil as the control. Moist, activated-charcoal filtered air entered both odor bottles connected by Teflon tubing to their respective arms of the Y-tube. The airflow rate through the olfactometer was 100 mL/min, which was measured by a float rotor meter. A newly emerged female S. mosellana adult was introduced into the end of the base of the Y-tube, which was then immediately covered with a dark paper box. An office lamp (20 W) illuminated the joint of two arms to facilitate observation. The choice was made if the S. mosellana female walked or flew 5 cm past the Y junction within 5 min and remained there for at least 15 s. Otherwise, it would be recorded as no-choice. Odor source was renewed for every five individuals. After testing for 10 individuals, the Y-tube was thoroughly cleaned with 95% ethanol and dried, and the treatment and control arms were switched to avoid the directional bias. After one odor source was tested, the Y-tube, odor bottles, and Teflon tubing were cleaned and dried before reuse. All experiments were conducted in a laboratory with a temperature of 25 ± 1 °C from 5:00 to 9:00 p.m. Sixty female adults were tested in each treatment group, and each individual was used only once. The choice response of insects in each treatment group was analyzed by the chi-square test using SPSS 20.0 software (Chicago, IL, USA). Non-selecting insects were recorded but not included in the statistical analysis.

[4] = test system: female antennae of S. mosellana; parameters: method as in Cheng et al., 2020; details: ref Cheng et al., 2020; cited from earlier work
[5] = test system: SmosOBP11; parameters: method as in PMID 31017726; details: cited from earlier work
[6] = test system: SmosOBP16; parameters: method as in PMID 31017726; details: cited from earlier work
[7] = test system: SmosOBP21; parameters: method as in PMID 31017726; details: cited from earlier work
[8] = displacement of 1-NPN, 2 μM protein, 2 μM 1-NPN, ligand 2–14 μM, three independent measurements, read-out: SmosOBP12 IC50
[9] = displacement of 1-NPN, 2 μM protein, 2 μM 1-NPN, ligand 2–40 μM, three independent measurements, read-out: SmosOBP17 IC50

Chain of SmosOBP12 (A0A346RTY7 entry or part of it): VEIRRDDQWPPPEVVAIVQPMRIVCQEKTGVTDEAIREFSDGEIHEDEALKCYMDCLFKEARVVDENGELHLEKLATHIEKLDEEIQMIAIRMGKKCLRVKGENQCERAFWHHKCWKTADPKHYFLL
Chain of SmosOBP17 (A0A346RTY9 entry or part of it): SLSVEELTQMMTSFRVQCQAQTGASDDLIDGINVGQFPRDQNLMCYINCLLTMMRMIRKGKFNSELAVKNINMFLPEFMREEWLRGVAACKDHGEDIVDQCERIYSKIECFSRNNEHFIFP

Row | SMILES | Ki ([1]; read-out: SmosOBP12 Ki) | IC50 [1, 8] | IC50 [2, 9] | behavioral response of S. mosellana female adults [3] | electrophysiological response on female antennae [4] | Ki [2] | IC50 [1] | Ki ([1]; SmosOBP12 Ki) | IC50 [2] | Ki ([1]; listed as ocimene, read-out: SmosOBP12 Ki) | binding to SmosOBP17 (in words) [2] | binding to SmosOBP11 (in words) [5] | binding to SmosOBP16 (in words) [6] | binding to SmosOBP21 (in words) [7] | binding to SmosOBP12 (in words) ([1]; fluorescence competitive binding)
1 | C=CC(O)CCCCC (stereo not drawn) [1-Octen-3-ol] | 5.29 ± 0.11 µM | 6.55 ± 0.12 µM | > 40 µM | intensive response; also recorded: significant attraction; also recorded: significantly attracted | strong electrophysiological responses |  |  |  |  |  |  |  |  |  | 
2 | CC1=CCC2C(C1)C2(C)C (stereo not drawn) [3-Carene] | 3.84 ± 0.12 µM | 4.76 ± 0.15 µM | > 40 µM | intensive response; also recorded: significant attraction |  |  |  |  |  |  |  |  |  |  | 
3 | CCCC(O)CC (stereo not drawn) [3-Hexanol] | 3.33 ± 0.05 µM | 4.12 ± 0.07 µM | 34.68 ± 0.34 µM | intensive response; also recorded: significant attraction; also recorded: significantly attracted | strong electrophysiological responses | 26.05 ± 0.25 µM |  |  |  |  |  |  |  |  | 
4 | CC/C=C\CCOC(C)=O [(Z)-3-Hexenyl acetate] | 7.18 ± 0.01 µM | 8.88 ± 0.02 µM | > 40 µM | intensive response; also recorded: significant attraction; also recorded: significantly attracted | strong electrophysiological responses |  |  |  |  |  |  |  |  |  | 
5 | CC(C)(CO)[C@@H](O)C(=O)NCCCO [D-Panthenol] | 4.07 ± 0.05 µM | 5.04 ± 0.08 µM | 38.01 ± 0.2 µM | intensive response; also recorded: significant attraction; also recorded: significantly attracted | strong electrophysiological responses | 28.55 ± 0.15 µM |  |  |  |  |  |  |  |  | 
6 | CCCCCCC(=O)OCC [Ethyl heptanoate] | 7.29 ± 0.09 µM | 9 ± 0.11 µM | 38.28 ± 0.12 µM | intensive response; also recorded: significant attraction; also recorded: significantly attracted | strong electrophysiological responses | 28.76 ± 0.09 µM |  |  |  |  |  |  |  |  | 
7 | CCCCCCCOC(C)=O [Heptyl acetate] | 3.34 ± 0.02 µM | 4.11 ± 0.02 µM | 28.79 ± 0.09 µM | intensive response; also recorded: significant attraction; also recorded: significantly attracted | strong electrophysiological responses | 21.63 ± 0.06 µM |  |  |  |  |  |  |  |  | 
8 | CCCCCCOC(C)=O [Hexyl acetate] | 10.42 ± 0.08 µM | 12.88 ± 0.09 µM | 33.96 ± 0.03 µM | intensive response; also recorded: significant attraction; also recorded: significantly attracted | strong electrophysiological responses | 25.51 ± 0.02 µM |  |  |  |  |  |  |  |  | 
9 | COC(=O)c1ccccc1O [Methyl salicylate] |  |  |  | intensive response; also recorded: significant attraction; also recorded: significantly attracted | strong electrophysiological responses |  | 11.9 ± 0.24 µM | 9.62 ± 0.33 µM | 26.8 ± 0.27 µM |  |  |  |  |  | 
10 | C=CC(C)=CCC=C(C)C [Ocimene] | 8.24 ± 0.03 µM | 10.17 ± 0.04 µM | > 40 µM | repelled; also recorded: intensive response; also recorded: significant repulsion; also recorded: strong repelling effect |  | > 30 µM |  |  |  | 8.2 µM | insensitive; also recorded: did not bind | did not bind | did not bind | did not bind | 
11 | C=C/C(C)=C/C/C=C(\C)CCC=C(C)C [α-Farnesene] | > 11.3 µM | > 14 µM | > 40 µM | intensive response; also recorded: significant repulsion; also recorded: repelled |  | > 30 µM |  |  |  |  | did not show any affinity; also recorded: no affinity | no affinity | no affinity | no affinity | did not show any affinity; also recorded: no affinity
